Measured values from publication PMC7413254 (Nature Communications, 2020).
Read-outs that look alike come from different tables or passages of the source.

Tests used:
[1] = test system: non-expressing oocytes; experiment: cells; assay type: cell-based, Xenopus laevis; details: Xenopus laevis, total [3H]CQ transport; for inhibition at 500 µM: [test solute] = 0.5 mM; for inhibition at 1000 µM: [test solute] = 1 mM; for inhibition at 2000 µM: [test solute] = 2 mM
Procedure, shortened: (§1)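 ND96, pH 5.5, 1.5 h, 27.5 °C; uptake direction acidic outside → oocyte cytosol, mimicking efflux from digestive vacuole. Ice-cold wash stop, 10% SDS lysis, scintillation counting. Ten oocytes/treatment, ≥4 independent experiments.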

[2] = molecular target: T1, PfCRT^3D7 (Plasmodium falciparum, UniProt Q8IBZ9); experiment: cell-based; assay type: cell-based; details: total [3H]CQ transport; for inhibition at 500 µM: [test solute] = 0.5 mM; for inhibition at 1000 µM: [test solute] = 1 mM; for inhibition at 2000 µM: [test solute] = 2 mM
Procedure, shortened: as §1

[3] = molecular target: T2, PfCRT^Dd2 (Plasmodium falciparum, UniProt Q9N623, A220S/I356T/K76T/M74I/N326S/N75E/Q271E/R371I); experiment: [3H]CQ uptake into Xenopus oocytes, cis-inhibition by unlabelled solute; assay type: cell-based
Procedure, shortened: as §1

[4] = molecular target: T3, PfCRT^Ecu1110 (Plasmodium falciparum, UniProt Q9N623, A220S/I356L/K76T/N326D); experiment: as above; assay type: cell-based
Procedure, shortened: as §1

[5] = test system: non-expressing oocytes; assay type: cell-based, Xenopus laevis; details: total [3H]CQ transport; for Uptake of [3H]CQ (% non-expressing oocyte control), trans-stimulation: non-expressing oocytes, normalised to the oocyte type control; for Uptake of [3H]CQ (% PfCRTDd2 control), trans-stimulation, non-expressing oocytes: mean ± SEM, SEM
Procedure, shortened: (§2)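 Oocytes (ten per treatment, ≥4 independent frogs/days) were preloaded by injecting VF-6 in 25 nL ND96 at pH 5.0, 5.5, 6.0 or 7.0, or Na^+-free choline buffer, then uptake run 1.5 h, 27.5 °C, ND96 pH 5.5 by default. Internal concentrations assumed ~400 nL oocyte volume.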

[6] = molecular target: T1, PfCRT^3D7; experiment: cell-based; assay type: cell-based
Procedure, shortened: as §2

[7] = molecular target: T2, PfCRT^Dd2; experiment: cell-based; assay type: cell-based; details: […]; for activity at 45000 µM: [test solute]i = 45 mM (30 mM for some solutes due to solubility)
Procedure, shortened: as §2

[8] = molecular target: T3, PfCRT^Ecu1110; experiment: cell-based; assay type: cell-based; details: […]
Procedure, shortened: as §2

[9] = molecular target: T4, PfNT1 (Plasmodium falciparum, UniProt Q8IDM6); experiment: cell-based; assay type: cell-based; details: for activity at 5000 µM: total [3H]CQ transport
T4 construct: expressed in transfected cells; host or cells: Xenopus laevis oocytes (stage V-VI), cRNA-injected
Procedure, shortened: as §2

[10] = test system: PfCRT; experiment: Influx of VF-6 via PfCRT into the oocyte, solutes tested as potential co-substrates; assay type: cell-based, Plasmodium falciparum; set-up: key: X: Compounds that have been tested as potential co-substrates but are not required for influx of VF-6 via PfCRT into the oocyte; details: X marks the solute
[11] = test system: PfCRT; experiment: Test of solutes as potential co-substrates for influx of VF-6 via PfCRT into the oocyte; assay type: cell-based, Plasmodium falciparum; set-up: key: X: Compounds that have been tested as potential co-substrates but are not required for influx of VF-6 via PfCRT into the oocyte; details: X = tested
[12] = Oocyte, mean ± SEM, SEM, read-out: Uptake of [3H]CQ (% PfCRTDd2 control), cis-inhibition, non-expressing oocytes
[13] = non-expressing oocytes, normalised to the oocyte type control, read-out: Uptake of [3H]CQ (% non-expressing oocyte control), cis-inhibition
[14] = PfCRT3D7 oocytes, normalised to the oocyte type control, read-out: Uptake of [3H]CQ (% PfCRT3D7 control), cis-inhibition
[15] = mean ± SEM, SEM, read-out: Uptake of [3H]CQ (% PfCRTDd2 control), cis-inhibition, PfCRT3D7
[16] = read-out: PfCRT-mediated [3H]CQ transport, cis-inhibition (% PfCRTDd2 control)
[17] = read-out: Uptake of [3H]CQ (% PfCRTDd2 control), cis-inhibition
[18] = read-out: Uptake of [3H]CQ (% PfCRTDd2 control), cis-inhibition, PfCRTDd2, SEM
[19] = read-out: [3H]CQ transport (% PfCRTDd2 control), cis-inhibition, PfCRTDd2, SEM
[20] = read-out: PfCRT-mediated [3H]CQ transport, cis-inhibition (% PfCRTEcu1110 control)
[21] = read-out: Uptake of [3H]CQ (% PfCRTDd2 control), cis-inhibition, PfCRTEcu1110, SEM
[22] = read-out: Uptake of [3H]CQ (% PfCRTEcu1110 control), cis-inhibition
[23] = read-out: [3H]CQ transport (% PfCRTEcu1110 control), cis-inhibition, PfCRTEcu1110, SEM

T4 sequence (Q8IDM6 whole entry): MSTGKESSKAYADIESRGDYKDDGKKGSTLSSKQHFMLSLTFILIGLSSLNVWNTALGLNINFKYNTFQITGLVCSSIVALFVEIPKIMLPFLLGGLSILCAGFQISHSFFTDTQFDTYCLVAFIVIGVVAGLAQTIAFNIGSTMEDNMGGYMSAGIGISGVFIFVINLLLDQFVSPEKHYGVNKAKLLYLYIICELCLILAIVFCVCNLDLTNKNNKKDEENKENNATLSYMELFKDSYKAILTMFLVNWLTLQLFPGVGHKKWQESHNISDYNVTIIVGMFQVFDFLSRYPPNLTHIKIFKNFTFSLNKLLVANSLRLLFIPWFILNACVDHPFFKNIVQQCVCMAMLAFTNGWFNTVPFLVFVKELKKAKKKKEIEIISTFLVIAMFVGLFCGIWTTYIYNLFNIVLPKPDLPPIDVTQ
T2 sequence (Q9N623 whole entry A220S/I356T/K76T/M74I/N326S/N75E/Q271E/R371I): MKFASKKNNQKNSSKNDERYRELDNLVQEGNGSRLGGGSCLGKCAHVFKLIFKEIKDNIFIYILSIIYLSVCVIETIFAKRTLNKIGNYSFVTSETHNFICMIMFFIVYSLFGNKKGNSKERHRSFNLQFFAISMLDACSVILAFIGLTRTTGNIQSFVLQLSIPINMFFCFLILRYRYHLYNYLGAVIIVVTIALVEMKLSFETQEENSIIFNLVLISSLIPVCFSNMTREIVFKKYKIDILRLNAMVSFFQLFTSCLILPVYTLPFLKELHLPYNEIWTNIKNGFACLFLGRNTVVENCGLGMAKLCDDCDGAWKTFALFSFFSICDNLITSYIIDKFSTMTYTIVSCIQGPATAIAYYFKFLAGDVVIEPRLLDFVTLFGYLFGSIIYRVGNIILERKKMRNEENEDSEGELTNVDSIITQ
T1 sequence (Q8IBZ9 59-398): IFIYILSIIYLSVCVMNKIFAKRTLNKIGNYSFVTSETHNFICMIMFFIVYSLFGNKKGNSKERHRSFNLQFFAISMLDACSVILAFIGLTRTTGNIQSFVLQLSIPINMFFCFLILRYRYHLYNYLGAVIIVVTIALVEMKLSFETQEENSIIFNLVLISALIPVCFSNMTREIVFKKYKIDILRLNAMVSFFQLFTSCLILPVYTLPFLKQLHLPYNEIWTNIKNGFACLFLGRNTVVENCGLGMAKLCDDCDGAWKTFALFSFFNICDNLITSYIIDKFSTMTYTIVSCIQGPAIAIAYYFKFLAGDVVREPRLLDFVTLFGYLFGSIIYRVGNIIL
T3 sequence (Q9N623 whole entry A220S/I356L/K76T/N326D): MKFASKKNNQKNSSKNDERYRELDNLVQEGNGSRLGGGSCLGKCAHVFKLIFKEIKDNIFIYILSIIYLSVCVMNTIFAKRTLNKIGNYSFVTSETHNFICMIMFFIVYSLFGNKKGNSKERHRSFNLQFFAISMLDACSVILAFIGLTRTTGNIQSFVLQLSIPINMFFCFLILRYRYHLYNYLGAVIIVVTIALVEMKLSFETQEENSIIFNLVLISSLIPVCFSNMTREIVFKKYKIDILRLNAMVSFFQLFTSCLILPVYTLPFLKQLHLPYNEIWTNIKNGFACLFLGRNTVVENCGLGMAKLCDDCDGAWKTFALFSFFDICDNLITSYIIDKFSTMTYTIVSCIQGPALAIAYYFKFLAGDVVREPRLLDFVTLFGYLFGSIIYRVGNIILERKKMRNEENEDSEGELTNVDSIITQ

For CC(C)C[C@H](N)C(=O)O [L-leucine], the inhibition at 500 µM [1, 12] was 3.2 ± 0.08%, the inhibition at 1000 µM [1, 12] was 2.8 ± 0.07% and the inhibition at 2000 µM [1, 12] was 2.9 ± 0.04%. For the same molecule, the inhibition at 500 µM [1, 13] was 100 ± 3.7%, the inhibition at 1000 µM [1, 13] was 99 ± 4.6% and the inhibition at 2000 µM [1, 13] was 99 ± 5.7%. For the same molecule, the inhibition at 500 µM [2, 14] was 98 ± 3.6%, the inhibition at 1000 µM [2, 14] was 100 ± 4.7% and the inhibition at 2000 µM [2, 14] was 99 ± 3.6%. For the same molecule, the inhibition at 500 µM [2, 15] was 3.2 ± 0.08%, the inhibition at 1000 µM [2, 15] was 3.1 ± 0.08% and the inhibition at 2000 µM [2, 15] was 3.8 ± 0.05%. It also gave an inhibition at 500 µM [3, 16] of 98 ± 4.7%, an inhibition at 1000 µM [3, 16] of 96 ± 4.2% and an inhibition at 2000 µM [3, 16] of 98 ± 4.7%. The inhibition at 500 µM [3, 17] was 100 ± 3.8%, the inhibition at 1000 µM [3, 17] was 98 ± 3.1% and the inhibition at 2000 µM [3, 17] was 100 ± 1.9%. The inhibition at 500 µM [3, 18] was 100 ± 3.8%, the inhibition at 1000 µM [3, 18] was 98 ± 3.1% and the inhibition at 2000 µM [3, 18] was 100 ± 1.9%. The inhibition at 500 µM [3, 19] was 98 ± 4.7%, the inhibition at 2000 µM [3, 19] was 98 ± 4.7% and the inhibition at 500 µM [4, 20] was 99 ± 5.1%. It also gave an inhibition at 1000 µM [4, 20] of 97 ± 3.1%, an inhibition at 2000 µM [4, 20] of 99 ± 2.1% and an inhibition at 500 µM [4, 21] of 33 ± 1.6%. The inhibition at 1000 µM [4, 21] was 32 ± 1.3%, the inhibition at 2000 µM [4, 21] was 33 ± 1.5% and the inhibition at 500 µM [4, 22] was 102 ± 4.2%. It also gave an inhibition at 1000 µM [4, 22] of 98 ± 4.2%, an inhibition at 2000 µM [4, 22] of 100 ± 3.2% and an inhibition at 500 µM [4, 23] of 30 ± 1.5%. The inhibition at 1000 µM [4, 23] was 29 ± 0.6%, the inhibition at 2000 µM [4, 23] was 30 ± 0.7% and the “Uptake of [3H]CQ (% non-expressing oocyte control), trans-stimulation” value ([5]; [test solute]i = 5 mM) was 100 ± 3.2 % non-expressing oocyte control. The “Uptake of [3H]CQ (% non-expressing oocyte control), trans-stimulation” value ([5]; [test solute]i = 45 mM (30 mM for some solutes due to solubility)) was 100 ± 3.3 % non-expressing oocyte control, the “Uptake of [3H]CQ (% PfCRTDd2 control), trans-stimulation, non-expressing oocytes” value ([5]; [test solute]i = 5 mM (intracellular)) was 3.2 ± 0.08 % PfCRTDd2 control and the “Uptake of [3H]CQ (% PfCRTDd2 control), trans-stimulation, non-expressing oocytes” value ([5]; [test solute]i = 45 mM (intracellular; 30 mM for some solutes due to solubility)) was 3.2 ± 0.05 % PfCRTDd2 control. For the same molecule, the activity at 5000 µM ([6]; PfCRT3D7 oocytes, [test solute]i = 5 mM, total [3H]CQ transport, normalised to the oocyte type control, read-out: Uptake of [3H]CQ (% PfCRT3D7 control), trans-stimulation) was 100 ± 2.4%, the “[3H]CQ transport (% PfCRT3D7 control), trans-stimulation, PfCRT3D7” value ([6]; SEM) was 0.3 ± 0.02 % PfCRT3D7 control and the activity at 5000 µM ([6]; [test solute]i = 5 mM (intracellular), PfCRT3D7 oocytes, normalised to oocyte type control, read-out: PfCRT-mediated [3H]CQ transport, trans-stimulation (% PfCRT3D7 control)) was 98 ± 3.4%. It also gave an activity at 45000 µM ([6]; SEM, read-out: Uptake of [3H]CQ (% PfCRTDd2 control), trans-stimulation, PfCRT3D7) of 3.2 ± 0.04%, an activity at 45000 µM ([6]; read-out: PfCRT-mediated [3H]CQ transport, trans-stimulation (% PfCRT3D7 control)) of 95 ± 4.1% and an activity at 45000 µM ([6]; read-out: Uptake of [3H]CQ (% PfCRT3D7 control), trans-stimulation) of 97 ± 2.8%. The activity at 5000 µM ([6]; total [3H]CQ transport, [test solute]i = 5 mM (intracellular), mean ± SEM, SEM, read-out: Uptake of [3H]CQ (% PfCRTDd2 control), trans-stimulation, PfCRT3D7) was 3.3 ± 0.03%, the activity at 5000 µM ([7]; pH 5.5, read-out: PfCRT-mediated [3H]CQ transport, trans-stimulation (% PfCRTDd2 control), [test solute]i = 5 mM (intracellular), PfCRTDd2 oocytes, normalised to oocyte type control) was 95 ± 3.4% and the activity at 5000 µM ([7]; pH 5.5, read-out: Uptake of [3H]CQ (% PfCRTDd2 control), trans-stimulation, PfCRTDd2, total [3H]CQ transport, [test solute]i = 5 mM (intracellular), mean ± SEM, SEM) was 97 ± 0.7%. The activity at 5000 µM ([7]; pH 5.5, read-out: Uptake of [3H]CQ (% PfCRTDd2 control), trans-stimulation, PfCRTDd2 oocytes, [test solute]i = 5 mM, total [3H]CQ transport, normalised to the oocyte type control) was 97 ± 0.7%, the activity at 45000 µM ([7]; pH 5.5, read-out: Uptake of [3H]CQ (% PfCRTDd2 control), trans-stimulation, PfCRTDd2 oocytes, total [3H]CQ transport, normalised to the oocyte type control) was 98 ± 2.2% and the activity at 5000 µM ([7]; pH 5.5, read-out: [3H]CQ transport (% PfCRTDd2 control), trans-stimulation, PfCRTDd2, trans-stimulation, [test solute]i = 5 mM (injected), PfCRT-mediated component (background subtracted), mean ± SEM, SEM) was 95 ± 3.4%. It also gave an activity at 45000 µM ([7]; pH 5.5, read-out: [3H]CQ transport (% PfCRTDd2 control), trans-stimulation, PfCRTDd2, trans-stimulation, PfCRT-mediated component (background subtracted), mean ± SEM, SEM) of 96 ± 2.9%, an activity at 5000 µM ([8]; pH 5.5, read-out: PfCRT-mediated [3H]CQ transport, trans-stimulation (% PfCRTEcu1110 control), [test solute]i = 5 mM (intracellular), PfCRTEcu1110 oocytes, normalised to oocyte type control) of 96 ± 2.6% and an activity at 5000 µM ([8]; pH 5.5, read-out: Uptake of [3H]CQ (% PfCRTEcu1110 control), trans-stimulation, PfCRTEcu1110 oocytes, [test solute]i = 5 mM, total [3H]CQ transport, normalised to the oocyte type control) of 98 ± 3.2%. It also gave an activity at 45000 µM ([8]; pH 5.5, read-out: Uptake of [3H]CQ (% PfCRTEcu1110 control), trans-stimulation, PfCRTEcu1110 oocytes, [test solute]i = 45 mM (30 mM for some solutes due to solubility), total [3H]CQ transport, normalised to the oocyte type control) of 100 ± 3.5%, an activity at 5000 µM ([8]; read-out: Uptake of [3H]CQ (% PfCRTDd2 control), trans-stimulation, PfCRTEcu1110, total [3H]CQ transport, [test solute]i = 5 mM (intracellular), mean ± SEM, SEM) of 35 ± 1.3% and an activity at 45000 µM ([8]; read-out: Uptake of [3H]CQ (% PfCRTDd2 control), trans-stimulation, PfCRTEcu1110, total [3H]CQ transport, [test solute]i = 45 mM (intracellular; 30 mM for some solutes due to solubility), mean ± SEM, SEM) of 36 ± 1.7%. For the same molecule, the activity at 5000 µM ([9]; PfNT1 oocytes, [test solute]i = 5 mM, normalised to the oocyte type control, read-out: Uptake of [3H]CQ (% PfNT1 control), trans-stimulation) was 100 ± 3.8%, the activity at 45000 µM ([9]; SEM, read-out: Uptake of [3H]CQ (% PfCRTDd2 control), trans-stimulation, PfNT1) was 2.3 ± 0.09% and the activity at 45000 µM ([9]; read-out: Uptake of [3H]CQ (% PfNT1 control), trans-stimulation) was 98 ± 3.3%. The activity at 5000 µM ([9]; [test solute]i = 5 mM (intracellular), mean ± SEM, SEM, read-out: Uptake of [3H]CQ (% PfCRTDd2 control), trans-stimulation, PfNT1) was 3%, the “Compounds that have been tested as potential co-substrates but are not required for influx of VF-6 via PfCRT into the oocyte” value [10] was “X” and the “Tested as potential co-substrate but not required for influx of VF-6 via PfCRT into the oocyte” value [11] was “X”.
